Results as given in US7312205B2, “Methods and compositions for inhibiting tumor growth” (Novelix Pharmaceuticals, Inc., priority 2003, dated 2007).

Experiments:
[1] = test system: liposarcoma line (ATCC HTB-92); test: Growth inhibition in liposarcoma line ATCC HTB-92 (cell survival vs untreated controls); assay type: cell-based
Description: (§1) Examples 1 and 2 show direct comparisons between comparative compound A (betulic acid) and a novel derivative (compound B) in paired growth assays (cell count decrease after 3 days after a single application of the indicated concentrations of the respective compounds on day 1).
Comparison of the efficacy of comparative compound (A) (betulic acid) with that of compound (B) (protected betulic acid trisester) in a liposarcoma line (ATCC HTB-92). The X-axis indicates the concentration in μg/ml of compounds A and B, respectively, the Y-axis gives the cell survival rate in percent of the untreated controls. […]

melanoma cell line 518A2 = test: Growth inhibition in melanoma cell line 518A2 (cell survival vs untreated controls); assay type: cell-based
Description: as §1
Comparison of compound (A) (betulic acid) with compound (B) (protected betulic acid trisester)—Growth inhibition in melanoma cell line 518A2 (obtained from Peter Schrier, Leiden, The Netherlands) […]. The X-axis indicates the concentration in μg/ml of compounds A and B, respectively, the Y-axis gives the cell survival rate in percent of the untreated controls.
Comparison of the effects of different betulic acid derivatives according to the invention and of the comparative compound (betulic acid), respectively, on various melanoma-sarcoma lines. The data each refer to cell survival rates in percent (mean values) as against untreated cell cultures.
Survival in percent as with all other data after 3 days of cell culture after a single application on day 1

[2] = liposarcoma ATCC HTB-92, 0.3 μg/ml
[3] = liposarcoma ATCC HTB-92, 0.6 μg/ml
[4] = liposarcoma ATCC HTB-92, 1 μg/ml
[5] = liposarcoma ATCC HTB-92, 1.25 μg/ml
[6] = liposarcoma ATCC HTB-92, 2.5 μg/ml
[7] = liposarcoma ATCC HTB-92, 5 μg/ml
[8] = liposarcoma ATCC HTB-92, 10 μg/ml

Work on `C=C(C)[C@@H]1CC[C@]2(C(=O)NC(CO)(CO)CO)CC[C@]3(C)[C@H](CC[C@@H]4[C@@]5(C)CC[C@H](OC(C)=O)C(C)(C)[C@@H]5CC[C@]43C)[C@@H]12` [Compound C, Acetyl betulic acid-N-(1,1-bis(hydroxymethyl)-2-hydroxyethyl)formamide] yielded a survival in % [1, 2] of 96%, a survival in % [1, 3] of 82% and a survival in % [1, 4] of 81%. For the same compound, the “Survival in % melanoma” value (melanoma cell line 518A2; melanoma 518A2, 0.25 μg/ml) was 96%, the “Survival in % melanoma” value (melanoma cell line 518A2; melanoma 518A2, 0.5 μg/ml) was 93% and the survival in % (melanoma cell line 518A2; melanoma 518A2, 1 μg/ml) was 67.5%.

Work on `C=C(C)[C@@H]1CC[C@]2(C(=O)OCC(N)(CO)CO)CC[C@]3(C)[C@H](CC[C@@H]4[C@@]5(C)CC[C@H](OC(C)=O)C(C)(C)[C@@H]5CC[C@]43C)[C@@H]12` [Compound B, Acetyl betulic acid-2-amino-3-hydroxy-2-hydroxymethyl propyl ester] yielded a survival in % [1, 2] of 89.5%, a survival in % [1, 3] of 70.7% and a survival in % [1, 4] of 12.0%. The survival in % [1, 5] was 2.9%, the survival in % [1, 6] was 3.0% and the survival in % [1, 7] was 0.0%. For the same compound, the survival in % [1, 8] was 0.0%, the “Survival in % melanoma” value (melanoma cell line 518A2; Test #1: stock 50 mg/ml in EtOH, 1.0 μg/ml, 3 days) was 50% and the “Survival in % melanoma” value (melanoma cell line 518A2; Test #1: stock 50 mg/ml in EtOH, 2.0 μg/ml, 3 days) was 0.5%. For the same compound, the “Survival in % melanoma” value (melanoma cell line 518A2; Test #1: stock 50 mg/ml in EtOH, 3.0 μg/ml, 3 days) was 0.0%, the “Survival in % melanoma” value (melanoma cell line 518A2; Test #1: stock 50 mg/ml in EtOH, 4.0 μg/ml, 3 days) was 0.0% and the “Survival in % melanoma” value (melanoma cell line 518A2; Test #2: inclusion compound, 5.9 mg/ml in 266 mg/ml HBC in H2O, 1.0 μg/ml, 3 days) was 65%. For the same compound, the “Survival in % melanoma” value (melanoma cell line 518A2; Test #2: inclusion compound, 5.9 mg/ml in 266 mg/ml HBC in H2O, 2.0 μg/ml, 3 days) was 25%, the “Survival in % melanoma” value (melanoma cell line 518A2; Test #2: inclusion compound, 5.9 mg/ml in 266 mg/ml HBC in H2O, 3.0 μg/ml, 3 days) was 0.0% and the “Survival in % melanoma” value (melanoma cell line 518A2; Test #2: inclusion compound, 5.9 mg/ml in 266 mg/ml HBC in H2O, 4.0 μg/ml, 3 days) was 0.0%. The “Survival in % melanoma” value (melanoma cell line 518A2; Test #3: inclusion compound, 20 mg/ml in 266 mg/ml HBC in 50% EtOH/50% H2O, 1.0 μg/ml, 3 days) was 77%, the “Survival in % melanoma” value (melanoma cell line 518A2; Test #3: inclusion compound, 20 mg/ml in 266 mg/ml HBC in 50% EtOH/50% H2O, 2.0 μg/ml, 3 days) was 24% and the “Survival in % melanoma” value (melanoma cell line 518A2; Test #3: inclusion compound, 20 mg/ml in 266 mg/ml HBC in 50% EtOH/50% H2O, 3.0 μg/ml, 3 days) was 0.0%. The “Survival in % melanoma” value (melanoma cell line 518A2; Test #3: inclusion compound, 20 mg/ml in 266 mg/ml HBC in 50% EtOH/50% H2O, 4.0 μg/ml, 3 days) was 0.0%, the “Survival in % melanoma” value (melanoma cell line 518A2; Test #4: inclusion compound, 25 mg/ml in 200 mg/ml HGC in 50% EtOH/50% H2O, 1.0 μg/ml, 3 days) was 59% and the “Survival in % melanoma” value (melanoma cell line 518A2; Test #4: inclusion compound, 25 mg/ml in 200 mg/ml HGC in 50% EtOH/50% H2O, 2.0 μg/ml, 3 days) was 4%. For the same compound, the “Survival in % melanoma” value (melanoma cell line 518A2; Test #4: inclusion compound, 25 mg/ml in 200 mg/ml HGC in 50% EtOH/50% H2O, 3.0 μg/ml, 3 days) was 0.0%, the survival in % (melanoma cell line 518A2; melanoma 518A2, 0.3 μg/ml) was 83.0% and the survival in % (melanoma cell line 518A2; melanoma 518A2, 0.6 μg/ml) was 56.3%. It also gave a survival in % (melanoma cell line 518A2; melanoma 518A2, 1 μg/ml) of 11.3%, a survival in % (melanoma cell line 518A2; melanoma 518A2, 1.25 μg/ml) of 10.3% and a survival in % (melanoma cell line 518A2; melanoma 518A2, 2.5 μg/ml) of 2.8%. For the same compound, the survival in % (melanoma cell line 518A2; melanoma 518A2, 5 μg/ml) was 0.0%, the survival in % (melanoma cell line 518A2; melanoma 518A2, 10 μg/ml) was 0.0% and the “activity relative to comparative compound (A)” value (melanoma cell line 518A2; melanoma cell line 518A2, from ED50) was “up to 7 times”.

`C=C(C)[C@@H]1CC[C@]2(C(=O)O)CC[C@]3(C)[C@H](CC[C@@H]4[C@@]5(C)CC[C@H](O)C(C)(C)[C@@H]5CC[C@]43C)[C@@H]12` [A, betulic acid, reference compound] gave a survival in % [1, 2] of 98.0%, a survival in % [1, 3] of 92.8% and a survival in % [1, 4] of 92.3%. For the same compound, the survival in % [1, 5] was 79.5%, the survival in % [1, 6] was 49.3% and the survival in % [1, 7] was 20.8%. For the same compound, the survival in % [1, 8] was 15.7%.
